Measured values: patent publication US20240066027A1 (DOMAIN THERAPEUTICS, priority 2020, published 2024)

Key:
[1] = target: T1, human PAR-2 (hPAR-2) receptor expressed in HEK-293 T cells in an endogenous manner (Homo sapiens, UniProt P55085); test: In vitro human PAR-2 functional antagonist activity using calcium assays (Fluo4AM, FLIPR Tetra); assay type: cell-based; conditions: HEK-293 T cells stimulated by an EC80 of the 2-Furoyl-LIGRLO-NH2 peptide after 10 min incubation with compound; 20 concentrations, duplicate, two independent experiments
T1 construct: human PAR-2 (hPAR-2) receptor expressed in HEK-293 T cells in an endogenous manner; endogenous in cells; host or cells: HEK-293 T cells
T1 sequence (P55085 26-397): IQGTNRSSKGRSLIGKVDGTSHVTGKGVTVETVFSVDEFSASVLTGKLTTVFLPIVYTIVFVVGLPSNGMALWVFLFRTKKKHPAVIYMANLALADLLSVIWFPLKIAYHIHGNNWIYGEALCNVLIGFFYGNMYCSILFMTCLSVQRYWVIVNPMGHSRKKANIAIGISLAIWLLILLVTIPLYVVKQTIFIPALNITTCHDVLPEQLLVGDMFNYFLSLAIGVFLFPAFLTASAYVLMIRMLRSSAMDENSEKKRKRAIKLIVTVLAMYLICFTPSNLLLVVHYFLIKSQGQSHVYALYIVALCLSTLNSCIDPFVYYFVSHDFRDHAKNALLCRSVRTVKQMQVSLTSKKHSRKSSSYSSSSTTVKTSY
How it was run: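 Antagonist activity was taken as the decrease in the calcium response to an EC80 of 2-Furoyl-LIGRLO-NH2, measured over 5 min. The agonist was added after a 10 min compound-alone step on the same plate. The HEK-293 T cells express PAR-2 endogenously and were loaded with 1 μM Fluo4AM. Signals were referenced to buffer and EC80-alone controls.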

| SMILES | IC50 [1] [µM] | melting point [°C] |
| --- | --- | --- |
| CC(C)Cn1cc(C2CCOCC2)c2ccc(C(=O)N3CCNC(=O)C3(C)C)nc21 [Example 46, 4-(1-isobutyl-3-(tetrahydro-2H-pyran-4-yl)-1H-pyrrolo[2,3-b]pyridine-6-carbonyl)-3,3-dimethylpiperazin-2-one] | > 10 | > 250 |
| CC(C)Cc1nn(-c2ccc(C(F)(F)F)nc2)c2ccc(C(=O)N3CCNC(=O)C3(C)C)nc12 [Example 66, 4-(3-isobutyl-1-(6-(trifluoromethyl)pyridin-3-yl)-1H-pyrazolo[4,3-b]pyridine-5-carbonyl)-3,3-dimethylpiperazin-2-one] | > 10 | 185 to 190 |
| COc1ccc(-n2nc(CC(C)C)c3nc(C(=O)N4CCNC(=O)C4(C)C)ccc32)cc1 [Example 93, 4-(3-isobutyl-1-(4-methoxyphenyl)-1H-pyrazolo[4,3-b]pyridine-5-carbonyl)-3,3-dimethylpiperazin-2-one] | > 10 | 182 to 185 |
| CC(C)Cn1cc(-c2ccc(C#N)nc2)c2ccc(C(=O)N3CCNC(=O)C3(C)C)nc21 [Example 110, 5-(6-(2,2-dimethyl-3-oxopiperazine-1-carbonyl)-1-isobutyl-1H-pyrrolo[2,3-b]pyridin-3-yl)picolinonitrile] | 0.02 to 10 | 260 to 265 |
| COc1ccc(-c2cn(CC(C)C)c3nc(C(=O)N4CCNC(=O)C4(C)C)ccc23)cc1 [Example 111, 4-(1-isobutyl-3-(4-methoxyphenyl)-1H-pyrrolo[2,3-b]pyridine-6-carbonyl)-3,3-dimethylpiperazin-2-one] | 0.02 to 10 | 195 to 200 |

The next lines start with the values.

| IC50 [1] [µM] | melting point [°C] | SMILES |
| --- | --- | --- |
| 0.02 to 10 | 192 to 194 | CC(C)Cn1cc(-c2ccc(F)cc2)c2ccc(C(=O)N3CCNC(=O)C3(C)C)nc21 [Example 56, 4-[1-isobutyl-3-[4-fluorophenyl]pyrrolo[2,3-b]pyridine-6-carbonyl]-3,3-dimethyl-piperazin-2-one] |
| 0.02 to 10 | 185 to 187 | CC(C)Cc1nn(-c2ccc(OC(F)(F)F)cc2)c2ccc(C(=O)N3CCNC(=O)C3(C)C)nc12 [Example 79, 4-(3-isobutyl-1-(4-(trifluoromethoxy)phenyl)-1H-pyrazolo[4,3-b]pyridine-5-carbonyl)-3,3-dimethylpiperazin-2-one] |
| 0.02 to 10 | 216 to 218 | CC(C)Cn1cc(-c2ccc(C(F)(F)F)cc2)c2ccc(C(=O)N3CCNC(=O)C3(C)C)nc21 [Example 55, 4-[1-isobutyl-3-[4-(trifluoromethyl)phenyl]pyrrolo[2,3-b]pyridine-6-carbonyl]-3,3-dimethyl-piperazin-2-one] |
